The record followed here is patent US20180135134A1, “TARGETED SELECTION OF PATIENTS FOR TREATMENT WITH CORTISTATIN DERIVATIVES” (President and Fellows of Harvard College, priority 2015, published 2018).

The structures appear in SMILES notation.

Broadly, the GI50 is the concentration giving 50% growth inhibition. Low readings indicate greater sensitivity of the cells, high ones lower sensitivity of the cells.

For one assay, the system named is RS4;11. Put plainly: Cellular proliferation assay (CellTiter-Glo). As to conditions: Homo sapiens. On the technique in general: Cellular ATP, detected with luciferase, serves as a proxy for viable cell number.
For the next assay, the system named is Jurkat. Put plainly: Cellular proliferation assay (CellTiter-Glo). To be noted: Homo sapiens.
The test system of assay [1] is disseminated MV4;11-mCLP leukemia. The assay is described as follows: MV4;11 xenograft model in NSG mice. It counts as in vivo, mouse. The method, then: The MV4;11 xenograft model was performed as previously described (Etchin, J. et al. Antileukemic activity of nuclear export inhibitors that spare normal hematopoietic cells. Leukemia 27, 66-74 (2013)). Two-million MV4; 11-mCLP cells were injected into the tail vein of 7-week-old female non-obese diabetic-severe combined immuno-deficient (NOD-SCID)Il2rg^−/− (NSG) mice (The Jackson Laboratory) and tumour burden was assessed by bioluminescence imaging (BLI) using an IVIS Spectrum system (Caliper Life Sciences). […] After 30 days, blood counts were obtained (Hemavet 950 F, Drew Scientific) and spleen, femur and peripheral blood cells were collected and analysed by flow cytometry (LSR Fortessa, BD Biosciences) from three mice per group, having the highest, lowest and median BLI value. […] Survival was measured as the time from therapy initiation until moribund state. […]
The MV4;11 xenograft model was performed as previously described (Etchin, J. et al. Antileukemic activity of nuclear export inhibitors that spare normal hematopoietic cells. Leukemia 27, 66-74 (2013)). Two-million MV4;11-mCLP cells were injected into the tail vein of 7-week-old female non-obese diabetic-severe combined immuno-deficient (NOD-SCID)Il2rg-^−/− (NSG) mice (The Jackson Laboratory) and tumour burden was assessed by bioluminescence imaging (BLI) using an IVIS Spectrum system (Caliper Life Sciences). […]

In another assay the test system is SET-2. Put plainly: Synergy assay with ruxolitinib (Chou-Talalay), SET-2. It counts as cell-based, human. As to conditions: combination of cortistatin A with JAK1/2 inhibitor ruxolitinib, FIG. 5. Here is the method:
SET-2 and UKE-1 cells were co-treated with constant ratios of ruxolitinib to CA, 1 to 1 or 10 to 1, in a 96-well growth assay format with a range of 2-fold dose dilutions of compounds. SET-2 and UKE-1 cells were also treated with ruxolitinib alone or CA alone in a 2-fold dilution series. The Chou-Talalay combination index values at 50% growth inhibition (Fa=0.5) were determined using CalcuSyn software (see Chou, T. C. Cancer Res. 2010 Jan. 15; 70(2):440-6) (FIG. 5).

The test system of assay [2] is RUNX1 target gene signatures. The assay is described as follows: Gene expression and gene set enrichment analysis (GSEA) in SET-2 cells. It counts as cell-based, human. As to conditions: 4 h 25 nM CA. The method, then: Leukemia cells were plated (12-well) in triplicate at 500,000-800,000 cells per ml and incubated in the presence of vehicle (0.1% DMSO) or CA (25 nM 3 h for K562, MOLM-14 and MV4;11; 10 nM 24 h for MOLM-14; 25 nM 4 h for SET-2, n=3 for each cell line). Cells were then washed twice with cold PBS, and snap frozen. RNA was isolated (RNeasy Plus Microkit, Qiagen or TRIzol, Life Technologies), processed, and, for K562, MOLM-14 and MV4;11, hybridized to the Human U133 Plus 2.0 microarray (Affymetrix). Microarrays were processed with Bioconductor packages affyQCReport for quality control and affy for background correction, summarization, and normalization using rma. […] SET-2 and HCT 116 gene expression was measured by RNA-seq. […] Reads were aligned in two passes, first with rnaStar (v.2.3.0e) then with BWA (v.0.7.5a) for remaining unmapped reads, both using default parameters. Mapped reads were merged and counted using HTSeq (v.0.5.3p3) with -s yes -m intersection-strict. […] Samples were run in a single lane on an Illumina HiSEQ 2000 sequencer with a single read flow cell using 1×50-bp reads and a 6-cycle index read. Reads were mapped to the hgl9 reference genome using Tophat2 v.2.0.6 with custom settings including the setting of—library-type fr—firstrand to appropriately account for the stranded nature of the protocol. […]

Description for Jurkat: All suspension cells were plated (96-well) in triplicate at 5,000-30,000 cells per well for testing (n=3). Viable cell number was estimated after 3, 7 and 10 days by counting viable cells from one vehicle well, generating a cell dilution series, transferring 20 ml per well in duplicate to a 384-well plate, and performing a linear regression to CellTiter-Glo (Promega) response (SPECTRAmax M3, Molecular Devices). Cells from all wells were also fourfold diluted in media and transferred in duplicate for CellTiter-Glo measurement. On days 3 and 7, an equal volume for all wells was split-back with fresh media and compound, such that the resulting cell density for the vehicle well matched the initial seeding density. For days 7 and 10, estimated cell number represents the split-adjusted theoretical cell number. […] For growth assays with inhibitors, n=3 for each concentration with two independent experiments.
Description for RS4;11: All suspension cells were plated (96-well) in triplicate at 5,000-30,000 cells per well for testing (n=3). Viable cell number was estimated after 3, 7 and 10 days by counting viable cells from one vehicle well, generating a cell dilution series, transferring 20 ml per well in duplicate to a 384-well plate, and performing a linear regression to CellTiter-Glo (Promega) response (SPECTRAmax M3, Molecular Devices). Cells from all wells were also fourfold diluted in media and transferred in duplicate for CellTiter-Glo measurement. On days 3 and 7, an equal volume for all wells was split-back with fresh media and compound, such that the resulting cell density for the vehicle well matched the initial seeding density. For days 7 and 10, estimated cell number represents the split-adjusted theoretical cell number. HCT116 were plated (96-well) in triplicate at 250 cells per well. Cells were incubated in the presence of vehicle, 1 μM paclitaxel, or compound. On day 7, CellTiter-Blue (Promega) response was measured and values were normalized to vehicle (100% growth) and paclitaxel (0% growth). For growth assays with inhibitors, n=3 for each concentration with two independent experiments.

Consider `CN(C)[C@H]1C[C@@]23CC[C@@]4(O2)C(=CC[C@]2(C)[C@@H](c5ccc6ccncc6c5)CC[C@H]24)C=C3[C@@H](O)[C@@H]1O` [Cortistatin A, cortistatin A], for which the GI50 with RS4;11 is 3 nM; with Jurkat it was 155 nM. For the same molecule, in assay [1] (MV4;11 AML mice, Day 30, FIG. 10), the “leukemia cells in the lungs (haematoxylin and eosin staining)” value is given as “fewer leukemia cells in the lungs”. In assay [1] (female NSG mice, once daily IP for 15 days, measured 37 days after injection of cells, FIG. 6), the spleen weight result is “prevents spleen weight increase”. The “combination index (synergy) for inhibition of proliferation” value with SET-2 was “synergizes”. Moreover, the results for the NES in assay [2] (signature: GATA1/GATA2/RunX1/FLI1/SCL Binding Sites in Mks) and in assay [2] (signature: GATA1/SCL Binding Sites in Mks) were 2.03 and 2.27, respectively.
